Measured values from US9187406B2 (The Research Foundation of State University of New York, priority 2009, dated 2015).
pIC50: −log10 of the molar value. Read-outs that look alike come from different tables or passages of the source.

What was measured:
[1] = Diabetic rat model, 3-week oral treatment: blood glucose and hemoglobin A1c; assay type: in vivo; conditions: diabetic rats, 100 mg/kg and 500 mg/kg oral daily, 3 weeks
Protocol: (§1) At the end of the treatment protocol, the rats were sacrificed, blood samples were collected, and whole skin (except over limbs) and gingiva were dissected (the skin, because of ample quantities of tissue were analyzed for each rat separately; the gingiva, because of the tiny amounts that could be harvested per rat, were pooled for each experimental group, as prescribed previously for tetracycline studies (30). In addition, the jaw bones were collected, defleshed, and bone loss around the teeth analyzed morphometrically as described previously (42, 43).

[2] = Solubility in aqueous solutions; assay type: physicochemical
[3] = target: MMP-2 (Rattus norvegicus (Rat), UniProt P33436); experiment: Diabetic rat model, 3-week oral treatment: skin MMP-2 by ELISA; assay type: in vivo; conditions: both low and high doses, 3 weeks
Protocol: as §1

[4] = target: MMP-9 generated by PC-3 human prostate cancer cells (Homo sapiens (Human), UniProt P14780); experiment: MMP-9 in conditioned media of PC-3 cells, gelatin zymography and Western blot; assay type: cell-based; conditions: 10 μM and 20 μM, 48 hr, serum-free media
Protocol: Compound 1 was evaluated in a cell culture model of cancer. […] After the incubation, aliquots of the conditioned media were assayed for MMP-9 (gelatinase B) by either of two techniques, gelatin zymography (in the presence of 2 or 10 mMCa^++) and Western blot (both assays used purified MMP-9, 92 kDa gelatinase, as a standard).

[5] = tested on: alveolar (periodontal) bone loss in diabetic rats; experiment: Diabetic rat model, 3-week oral treatment: alveolar bone loss, morphometric; assay type: in vivo; conditions: 3 weeks
Protocol: as §1
Alveolar bone loss (the signature pathologic event in inflammatory periodontal disease) was assessed in the defleshed jaws of the compound 1-treated (TX) and untreated rats.

[6] = tested on: p38 MAP kinase; experiment: p38 MAP kinase activation; assay type: cell-based, human; conditions: preliminary studies
[7] = tested on: human monocytes; experiment: Cytotoxicity in human monocytes (MTS); assay type: cell-based
[8] = tested on: neonatal rat ventricular myocytes; experiment: Hydrogen peroxide induced LDH release; assay type: cell-based; conditions: 10 μM, H2O2 100 μM
Protocol: (§2) Test compounds and concentrations (MMP inhibitors, MMPi): • 1. GM-6001: 10 μM • 2. ONO-4817: 10 μM • 3.
Neonatal rat ventricular myocytes, serum starved for 24 h, were treated with the inhibitors 1 h prior to the addition of 100 μM of hydrogen peroxide (Sigma). LDH release in the conditioned media was quantified using CytoTox-ONE Homogeneous Membrane Integrity Assay reagent (Promega) at the indicated time points.

[9] = tested on: IL-1β; experiment: Diabetic rat model, 3-week oral treatment: gingival IL-1β by ELISA; assay type: in vivo; conditions: 3 weeks
Protocol: as §1

[10] = target: T1, MMP-9 (92 kDa gelatinase) (Rattus norvegicus (Rat), UniProt P50282); experiment: Diabetic rat model, 1-week oral treatment: plasma MMP-9 by gelatin zymography; assay type: in vivo; conditions: diabetic rats, 100 mg/kg oral once/day for 7 days
[11] = target: MMP-9 (human leukocyte gelatinase) (Homo sapiens (Human), UniProt P14780); experiment: MMP-9 inhibition in vitro, octapeptide/HPLC; assay type: biochemical
Sequence of MMP-9 (human leukocyte gelatinase) (P14780 94-707): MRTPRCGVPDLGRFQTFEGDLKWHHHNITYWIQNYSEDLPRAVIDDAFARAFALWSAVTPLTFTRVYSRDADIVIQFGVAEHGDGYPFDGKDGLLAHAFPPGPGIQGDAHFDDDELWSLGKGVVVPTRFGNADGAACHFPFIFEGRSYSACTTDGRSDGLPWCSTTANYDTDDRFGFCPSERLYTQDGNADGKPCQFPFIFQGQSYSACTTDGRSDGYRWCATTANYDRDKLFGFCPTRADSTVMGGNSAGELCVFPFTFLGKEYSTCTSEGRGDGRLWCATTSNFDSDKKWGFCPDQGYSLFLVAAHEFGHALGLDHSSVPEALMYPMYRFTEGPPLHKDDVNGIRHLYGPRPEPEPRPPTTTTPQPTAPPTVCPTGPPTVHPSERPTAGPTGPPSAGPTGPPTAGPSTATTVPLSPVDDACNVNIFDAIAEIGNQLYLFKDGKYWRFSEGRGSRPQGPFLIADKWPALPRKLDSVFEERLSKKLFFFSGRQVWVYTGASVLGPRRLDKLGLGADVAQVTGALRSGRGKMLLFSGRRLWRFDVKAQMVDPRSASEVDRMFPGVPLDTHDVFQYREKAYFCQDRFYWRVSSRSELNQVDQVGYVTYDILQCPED
Excerpt: In contrast all three chemically-modified curcumins at 100 μm final concentration inhibited gelatinase activity by 68-100% (FIG. 6 and Table 6).

[12] = target: T1, MMP-9 (92 kDa gelatinase); experiment: Diabetic rat model, 3-week oral treatment: gingival MMP-9 by gelatin zymography; assay type: in vivo; conditions: diabetic rats, 100 mg/kg and 500 mg/kg oral daily, 3 weeks
Protocol: as §1
(§3) This appearance of MMP-9 only in the gingiva (FIG. 10), but not the skin (FIG. 12), of the diabetic rats is likely the result of the oral bacteria inducing inflammation in the gingiva of these immune-suppressed UD rats, whereas the skin is not exposed to this onslaught of bacteria particularly the anaerobic gram-negative bacteria in the mouth that cause periodontal and gingival inflammation.

[13] = tested on: caspase-3 activity in neonatal rat ventricular myocytes; experiment: Doxorubicin mediated caspase-3 activity; assay type: cell-based; conditions: 10 μM, doxorubicin 500 nM, 6 h and 24 h
Protocol: as §2
Neonatal rat ventricular myocytes, serum starved for 24 h, were treated with the inhibitors 1 h prior to the addition of 500 nM of doxorubicin (Sigma). At the indicated time points cells were washed with ice-cold phosphate buffered saline and lysed using RIPA buffer (Pierce) containing protease and phosphatase inhibitors (Sigma). Caspase-3 activity in the cell lysates was measured by incubation with 7-amino-4-trifluoromethyl coumarin (Enzo).

[14] = tested on: human monocytes; experiment: Cytotoxicity in human monocytes (MTS); assay type: cell-based; remark: listed apart in the source
Protocol: Briefly, human peripheral blood monocytes (HMs) were isolated from a leukocyte concentrate by density gradient centrifugation (Lymphoprep) and the isolated HMs cultured (2 h, 37° C.) to remove non-adherent cells. The adherent HMs were cultured for 18 h (1×10^6 cells/well, 24-well plates)±endotoxin (LPS)±different compounds dissolved in DMSO (the final concentration of DMSO in the RPMI serum-free culture media with Pen./Strep. antibiotics was no greater than 0.5%). After incubation, the proinflammatory cytokines, TNFα, IL-1β, MCP-1 and IL-6 were measured in the conditioned media by ELISA and cytotoxicity was assessed by measuring the absorbance (490 nm) of formazan produced by reduction of MTS. The HMs alone ±0.1-0.5% DMSO produced minimal levels of these pro-inflammatory cytokines. However, addition of 100 ng/ml or 10 μg/ml of LPS both dramatically stimulated cytokine production.

[15] = Extractability/recovery from human serum by HPLC; conditions: human
Protocol: Detection of compounds & extractability/recovery from human serum (for future use to determine in vivo pharmacokinetics) was achieved using HPLC. The HPLC detection method is briefly described herein. 50 μl of buffer or human serum containing 166.67 μM, 16.67 μM and 1.67 μM of the compounds were incubated with 100 μl pre-cooled (−10° C.) extraction solvent containing CAN-MeOH-0.5M oxalic acid at a ratio of 60:30:10. The mixture was vortexed and centrifuged at 10,000 rpm for 10 min. The supernatant was then aliquoted and injected into an HPLC for analysis. Stock solutions of the compounds were made 100× in DMSO, then further diluted with buffer or serum.

[16] = target: chromatographically-purified MMP-2 (Homo sapiens (Human), UniProt P08253); experiment: MMP-2 inhibition in vitro, octapeptide/HPLC; assay type: biochemical
Sequence of chromatographically-purified MMP-2 (P08253 110-660): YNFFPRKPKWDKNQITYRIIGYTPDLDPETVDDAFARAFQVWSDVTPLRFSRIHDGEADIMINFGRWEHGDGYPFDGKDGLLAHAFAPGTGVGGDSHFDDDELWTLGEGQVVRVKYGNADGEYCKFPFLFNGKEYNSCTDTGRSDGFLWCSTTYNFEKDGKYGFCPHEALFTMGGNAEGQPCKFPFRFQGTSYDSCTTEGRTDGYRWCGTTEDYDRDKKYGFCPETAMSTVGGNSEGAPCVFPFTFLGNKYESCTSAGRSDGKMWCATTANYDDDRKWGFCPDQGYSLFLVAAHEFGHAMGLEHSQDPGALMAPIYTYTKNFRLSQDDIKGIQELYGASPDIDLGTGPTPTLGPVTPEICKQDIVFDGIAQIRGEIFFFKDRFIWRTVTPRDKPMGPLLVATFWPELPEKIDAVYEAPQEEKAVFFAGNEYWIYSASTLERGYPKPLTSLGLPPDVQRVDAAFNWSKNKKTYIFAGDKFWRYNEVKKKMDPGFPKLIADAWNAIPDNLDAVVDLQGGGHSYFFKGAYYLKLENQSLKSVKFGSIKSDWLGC

[17] = tested on: MCP-1, TNFα, VEGF; experiment: Cytokine and growth factor levels in LPS-challenged human monocytes, Luminex multiplex; assay type: cell-based; conditions: 2 μM, FIG. 2
Protocol: The cytokine levels were measured by Luminex multiplex, a method that allows the simultaneous measurement of different biological markers.

[18] = tested on: diabetic rats; experiment: Diabetic rat model, 1-week oral treatment: diabetic adverse events; assay type: in vivo; conditions: 100 mg/kg oral once/day for 7 days, n = 6
[19] = target: purified human PMN MMP-8 (Homo sapiens (Human), UniProt P22894); experiment: MMP-8 inhibition, synthetic octapeptide substrate, tripeptide product by HPLC; assay type: biochemical
Sequence of purified human PMN MMP-8 (P22894 101-467): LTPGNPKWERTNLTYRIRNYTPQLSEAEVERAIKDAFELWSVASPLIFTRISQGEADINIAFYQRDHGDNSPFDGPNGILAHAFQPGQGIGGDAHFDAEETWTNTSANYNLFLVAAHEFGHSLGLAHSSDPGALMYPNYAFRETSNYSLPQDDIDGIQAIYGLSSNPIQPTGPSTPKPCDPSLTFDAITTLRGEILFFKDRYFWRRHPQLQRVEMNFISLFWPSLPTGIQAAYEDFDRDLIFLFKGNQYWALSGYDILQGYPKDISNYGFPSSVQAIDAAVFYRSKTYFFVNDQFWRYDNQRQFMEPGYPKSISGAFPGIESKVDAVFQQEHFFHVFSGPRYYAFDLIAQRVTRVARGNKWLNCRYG

[20] = Diabetic rat model, 1-week oral treatment: serum glucose; assay type: in vivo; conditions: diabetic rats, 100 mg/kg oral once/day for 7 days
Excerpt: The purpose of the following was to establish an in vivo model of excessive collagen degradation to be used to test efficacy of the compounds of the subject invention. Male Sprague-Dawley rats (typically 300-400 gms of body weight), specific viral antibody free, were ordered from Charles River. Following general anesthesia via isoflurane anesthetic inhalation, diabetes was induced by an I.V. administration of streptozotocin (STZ) (50* mg/kg body weight) (Sigma Chemical Co., St Louis, Mo., USA) diluted in 0.9% citrated saline (pH 4.5), after 12 hours of fasting. After the streptozotocin injection, the animals were given free access to water and food. […] In this test, the test-paper color changes to dark brown which indicates glycosuria.
The latter assays were carried out using Western blot analysis with monoclonal antibodies to MMP-8.

[21] = target: MMP-2 (72 kDa gelatinase) (Rattus norvegicus (Rat), UniProt P33436); experiment: Diabetic rat model, 1-week oral treatment: plasma MMP-2 by gelatin zymography; assay type: in vivo; conditions: diabetic rats, 100 mg/kg oral once/day for 7 days
[22] = target: MMP-2 (gelatinase A) (Rattus norvegicus (Rat), UniProt P33436); experiment: Diabetic rat model, 3-week oral treatment: gingival MMP-2 by gelatin zymography; assay type: in vivo; conditions: diabetic rats, oral daily, 3 weeks
Protocol: as §1, §3

- Reduction of elevated MMP-2 level in skin (ELISA) [3]: 28%
- Effect on p38 MAP kinase activation [6]: little/no effect
- IC50 [11]: 16 µM
- MMP-9 level in gingiva [12]: reduced MMP-9 to the undetectable levels
- Recovery from human serum [15]: 76-80%
- Maximum Inhibition @ 100 μM, MMP-2 ([16]; 100 μM): 78%
- pIC50 ([16]; read-out: IC50 MMP-2): 4.32
- pIC50 ([19]; Example 7 experiment, 1 mM Ca++, 37° C., read-out: IC50, human neutrophil collagenase (MMP-8)): 5.00
- pIC50 ([19]; Table 1 experiments, read-out: IC50 against purified hMMP-8): 4.46
Compound: COC(=O)C(C(=O)/C=C/c1ccc(O)c(OC)c1)C(=O)/C=C/c1ccc(O)c(OC)c1 [Compound 1, 1,7-Bis(4-hydroxy-3-methoxyphenyl)-4-methoxycarbonylhepta-1E,6E-dien-3,5-dione]
- Effect on blood glucose and hemoglobin A1c levels [1]: no significant effect
- Solubility in aqueous solutions (comparative) [2]: more soluble than the insoluble natural product curcumin
- Production and/or activity of MMP-9 [4]: inhibited the production and/or activity of MMP-9
- Reduction in alveolar bone loss vs untreated groups ([5]; 100 mg/kg oral, p<0.05): ~60%
- Reduction in alveolar bone loss vs untreated groups ([5]; 500 mg/kg oral): less effective
- Cytotoxicity Monocytes @ 5 h incubation ([7]; 2 uM): 2 uM- 0%
- Cytotoxicity Monocytes @ 5 h incubation ([7]; 10 uM): 10 uM- 0%
- Cytotoxicity Monocytes @ 5 h incubation ([7]; 25 uM): 25 uM- 33%
- LDH release ([8]; 6 h): 24286±930
- Effect on LDH release ([8]; 24 h): less dramatic effect
- Reduction of IL-1β in gingiva vs untreated diabetic ([9]; higher oral dose (500 mg/kg)): 95%
- Reduction of IL-1β in gingiva vs untreated diabetic ([9]; lower oral dose (100 mg/kg)): about 18%
- Plasma MMP-9 level [10]: reduced the excessive levels of MMPs to essentially normal levels
- Effect on caspase-3 activity mediated by doxorubicin [13]: None of the MMP inhibitors, including compound 1, negatively modulate caspase-3 activity
- Cytotoxicity Monocytes @ 18 h incubation ([14]; 25 uM): 25 uM- 45.5%
- Cytotoxicity Monocytes @ 18 h incubation ([14]; 50 uM): 50 uM- 53%
- Reduction of proinflammatory cytokines and growth factors (MCP-1, TNFα, VEGF) [17]: potent in reducing proinflammatory cytokines such as MCP-1 and TNFα and growth factors such as VEGF
- Description of AEs [18]: Minor inflamed sclera
- Incidence of Adverse Events (AEs) [18]: 1/6
- IC50 against purified hMMP-8 ([19]; Table 1 experiments): equivalent to that of 1,10-O-phenanthroline
- Effect on severity of hyperglycemia (serum glucose) [20]: no effect on the severity of hyperglycemia
- Plasma MMP-2 level [21]: reduced the excessive levels of MMPs to essentially normal levels
- Pro- and activated-forms of MMP-2 in gingiva [22]: neither diabetes nor compound 1 appeared to have a detectable effect
